Experimental findings from patent publication US5574009A, “Method of stimulating myelination of cells” (Trustees of the University Of Pennsylvania, priority 1994, dated 1996) are described below.

For the assay, the system named is neonatal rat optic nerve cultures. The assay is described as follows: Mitomycin C treatment of optic nerve cultures. In kind it is cell-based. The following applies: 25 μg/ml for 30 minutes, PND-1, then 24 or 48 hours. On the procedure:
A stock solution of 0.5 mg/ml mitomycin C (Sigma) in HBSS (Gibco) was prepared and stored at 4° C. in the dark. Cultures were treated with 25 μg/ml mitomycin C diluted in N2/0.5% FCS for 30 minutes at 37° C. in the dark. The cultures were washed twice with N2/0.5% FCS and cultured for an additional 24 or 48 hours.
To test whether inhibition of proliferation per se affected the timing of GalC(+) appearance, optic nerve cultures prepared on PND-1 were treated with mitomycin C. After plating, the cells were incubated with 25 μg/ml mitomycin C for 30 minutes. After washing, the cultures were carried for an additional 24 or 48 hours.

Take `CO[C@@]12[C@H](COC(N)=O)C3=C(C(=O)C(C)=C(N)C3=O)N1C[C@@H]1N[C@@H]12` [mitomycin C]: the “numbers of A2B5(+) cells” value was “Decreased numbers of A2B5(+) cells” and the “proportion of GalC(+) cells” value is recorded as “without a concomitant increase in the proportion of GalC(+) cells”.
